# Assay results: paper PMC13453992, “Comparison of ex vivo placenta perfusion and in vitro BeWo b30 cell models for assessing transfer of developmental and reproductive toxic compounds” (Archives of Toxicology, 2026)
# Test: Fraction unbound in placental perfusion buffer by Rapid Equilibrium Dialysis
# Format: in vitro ADME
# Conditions: placenta perfusion buffer with albumin; RED 4 hours at 37 °C
# Experimental: Free drug concentrations in perfusion buffer were determined using Rapid Equilibrium Dialysis (RED) single use plates (ThermoScientific, Rockford, USA) according to the manufacturer’s instructions. In short, placental perfusion buffer samples from multiple timepoints were loaded on one side of the RED and clean placenta perfusion buffer without albumin was added to the other side. This was incubated on a ThermoMixer C (Eppendorf Nederland B.V., Nijmegen, The Netherlands) at 250 rpm for 4 hours at 37 °C. The average from all measurements was taken to determine the average fraction unbound for each ex vivo placenta perfusion experiment.
compound,measurement,value
"Cc1cc(=O)n(-c2ccccc2)n1C [Antipyrine, antipyrine]",Fraction unbound,95 ± 2%
